In patent US8927547B2, “Pyrimidine derivatives” (Noviga Research AB, priority 2010, dated 2015):
pEC50: −log10 of the molar value.

What follows are molecules tested on CCRF-CEM cancer cells - leukaemia (assay: Fluorometric Microculture Cytotoxicity Assay (FMCA), CCRF-CEM). Details: Homo sapiens, 72 h incubation.
Format: cell-based
Text: The Fluorometric Microculture Cytotoxicity Assay, FMCA, is a three day non-clonogenic microplate-based cell viability assay used for measurement of the cytotoxic and/or cytostatic effect of compounds in vitro (Lindhagen, E., et al. Nat Protoc, 2008. 3(8): p. 1364-9). FMCA (Larsson, R. and P. Nygren, Anticancer Res, 1989. 9(4): p. 1111-9) represents a valuable method to measure cytotoxicity in a number of cell types, both cell lines and primary cells from patients (Larsson, R., et al., Int J Cancer, 1992. 50(2): p. 177-85; Fridborg, H., et al., Eur J Cancer, 1999. 35(3): p. 424-32; Dhar, S., et al., Br J Cancer, 1996. 74(6): p. 888-96).
FMCA is based on the principle that fluorescein diacetate (FDA) is converted to the fluorescent probe fluorescein by esterases in the plasma membranes of living cells. For experiments, 96 or 384-well microplates are prepared with compounds and stored at −70° C. until use. Cells are then seeded into the drug-prepared plates and placed in an incubator for 72 h. On the last day of incubation, the plates are washed and a buffer containing FDA is added and incubated with the cells for 45 minutes. Finally the fluorescence per well is measured in a fluorometer and a Survival Index % (SI) for each compound-treated well is calculated with the equation: Compound-treated cells minus blank divided by control cells minus blank. A high SI-value indicates a large percentage of living cells and vice versa.
In subsequent experiments, compounds were tested, along with kinase inhibitors (dasatinib, pazopanib, sorafenib, and sunitinib) as described above. Initially, the acute lymphoblastic leukaemia cell line CCRF-CEM (see e.g. Foley G E, et al. Cancer 1965, 18, 522-529) was used throughout. In the assay plates, medium was added to six empty wells (blank wells) and wells were filled with PBS and cell suspension and served as control wells. SI-values were then calculated for each compound-treated well as described above. All experiments were conducted twice and a new batch of plates was prepared for each experiment.
For dose-response experiments, 384-well plates were prepared as follows:
Compounds of the invention as well as kinase inhibitors sorafenib, sunitinib, dasatinib, and pazopanib (reference compounds) were diluted with PBS to a concentration which was ten-times higher than the desired starting concentration. Then, a Biomek 2000 liquid handling system was employed to serially dilute the compounds in a deep-well 384-well plate. From this plate, assay plates containing 5 μl compound per well were prepared with the Biomek 2000. Certain compounds precipitated when diluted with PBS, and these compounds were therefore prepared in a 96-well plate manually as described above using culture medium RPMI 1640 instead of PBS.
The compounds were also tested at five concentrations, with five times serial dilution on the following cell types: CCRF-CEM, hTERT-RPE1 (normal retinal epithelial cells), hRPTEpiC (normal renal cells) and PBMC (peripheral blood mononuclear cells). Each experiment was performed three times, except for PBMC and hRPTEpiC, which were performed twice. SI-values were calculated, graphs were plotted using GraphPadPrism 5.0 (GraphPad Software Inc. La Jolla, Calif.) and EC50-values for each cell type and compound were determined from the curves.
`c1cc(Nc2nccc(NCc3ccc4[nH]ncc4c3)n2)c2cc[nH]c2c1` [Example 18, N^2-(1H-indol-4-yl)-N^4-(1H-indazol-5-ylmethyl)pyrimidine-2,4-diamine] was tested, and the pEC50 was 6.15. With `Nc1cnc(Nc2cccc3[nH]ccc23)nc1NCc1ccc2[nH]ccc2c1` [Example 38, N^4-(1H-indol-5-ylmethyl)-N^2-(1H-indol-4-yl)pyrimidine-2,4,5-triamine] the pEC50 was 5.36. Work on `Cc1cc2cc(Nc3nc(NCc4ccc5[nH]ccc5c4)cc(C(F)(F)F)n3)ccc2[nH]1` [Example 33, N^4-(1H-indol-5-ylmethyl)-N^2-(2-methyl-1H-indol-5-yl)-6-trifluoromethylpyrimidine-2,4-diamine] yielded a pEC50 of 5.02. With `COCCOc1ccc2[nH]cc(CCNc3nccc(NCc4ccc5[nH]ccc5c4)n3)c2c1` [Example 74, N^4-(1H-indol-5-ylmethyl)-N^2-{2-[5-(2-methoxyethoxy)-1H-indol-3-yl]ethyl}pyrimidine-2,4-diamine] the pEC50 was over 5.00. `COc1ccc2[nH]cc(CCNc3ccnc(NCc4ccc5[nH]ccc5c4)n3)c2c1` [Example 28, N^2-(1H-indol-5-ylmethyl)-N^4-[2-(5-methoxy-1H-indol-3-yl)ethyl]pyrimidine-2,4-diamine] showed a pEC50 of 5.51. With `c1cc(NCc2ccc3[nH]ccc3c2)nc(Nc2ccc3[nH]ccc3c2)n1` [Example 2, N^4-(1H-indol-5-ylmethyl)-N^2-(1H-indol-5-yl)pyrimidine-2,4-diamine] the pEC50 was 5.32. For `CCN(CC)CCNC(=O)c1c(C)[nH]c(/C=C2\C(=O)Nc3ccc(F)cc32)c1C` [Ref. 2, sunitinib, reference compound], the pEC50 was 4.85. Work on `Cc1ccc2[nH]cc(CCNc3ccnc(NCc4ccc5[nH]ccc5c4)n3)c2c1` [Example 27, N^2-(1H-indol-5-ylmethyl)-N^4-[2-(5-methyl-1H-indol-3-yl)ethyl]pyrimidine-2,4-diamine] yielded a pEC50 of 5.38. Molecule `Cc1cc2cc(CNc3ccnc(NCCc4c[nH]c5ccccc45)n3)ccc2[nH]1` [Example 17, N^2-(2-(1H-indol-3-yl)-ethyl)-N^4-(2-methyl-1H-indol-5-ylmethyl)pyrimidine-2,4-diamine] has a pEC50 of 5.14. `c1cc(NCc2ccc3[nH]ccc3c2)nc(NCCc2c[nH]c3ccc(OCCN4CCOCC4)cc23)n1` [Example 73, N^4-(1H-indol-5-ylmethyl)-N^2-{2-[5-(2-morpholinoethoxy)-1H-indol-3-yl]ethyl}pyrimidine-2,4-diamine] was tested, and the pEC50 was over 5.00. Molecule `Cc1cc2cc(CNc3ccnc(Nc4cccc5[nH]ccc45)n3)ccc2[nH]1` [Example 13, N^2-(1H-indol-4-yl)-N^4-(2-methyl-1H-indol-5-ylmethyl)pyrimidine-2,4-diamine] has a pEC50 of 6.26. Work on `c1cc(Nc2ccnc(NCc3ccc4[nH]ncc4c3)n2)c2cc[nH]c2c1` [Example 29, N^2-(1H-indazol-5-ylmethyl)-N^4-(1H-indol-4-yl)pyrimidine-2,4-diamine] yielded a pEC50 of 5.56. `c1ccc2c(CCNc3nccc(NCc4ccc5[nH]ccc5c4)n3)c[nH]c2c1` [Example 9, N^2-[2-(1H-indol-3-yl)ethyl]-N^4-(1H-indol-5-ylmethyl)pyrimidine-2,4-diamine] gave a pEC50 of 5.06. `COC(=O)c1cc(Nc2nccc(NCc3ccc4[nH]ccc4c3)n2)c2cc[nH]c2c1` [Example 81, Methyl 4-[4-(1H-indol-5-ylmethylamino)pyrimidin-2-ylamino]-1H-indole-6-carboxylate] was tested, and the pEC50 was over 5.00. Work on `Cc1cc(Nc2ccc3[nH]c(C)cc3c2)nc(NCc2ccc3[nH]ccc3c2)n1` [Example 83, N^2-(1H-indol-5-ylmethyl)-6-methyl-N^4-(2-methyl-1H-indol-5-yl)pyrimidine-2,4-diamine] yielded a pEC50 of over 5.00. `COc1ccc2[nH]cc(CCNc3nc(Cc4ccccc4)cc(NCc4ccc5[nH]ccc5c4)n3)c2c1` [Example 85, N^4-(1H-indol-5-ylmethyl)-6-benzyl-N^2-[2-(5-methoxy-1H-indol-3-yl)ethyl]pyrimidine-2,4-diamine] was tested, and the pEC50 was over 5.00. In the case of `COc1ccc2[nH]cc(CCNc3nccc(NCc4ccc5[nH]cnc5c4)n3)c2c1` [Example 69, N^4-(1H-benzo[d]imidazol-5-ylmethyl)-N^2-[2-(5-methoxy-1H-indol-3-yl)ethyl]pyrimidine-2,4-diamine], the pEC50 was over 5.00. `Cc1nc(Nc2ncc(C(=O)Nc3c(C)cccc3Cl)s2)cc(N2CCN(CCO)CC2)n1` [Ref. 3, dasatinib, reference compound] showed a pEC50 of 5.01. Molecule `CNC(=O)c1cc(Oc2ccc(NC(=O)Nc3ccc(Cl)c(C(F)(F)F)c3)cc2)ccn1` [Ref. 1, sorafenib, reference compound] has a pEC50 of 5.08. Molecule `c1cc(Nc2nccc(NCc3ccc4cc[nH]c4c3)n2)c2cc[nH]c2c1` [Example 20, N^4-(1H-indol-6-ylmethyl)-N^2-(1H-indol-4-yl)pyrimidine-2,4-diamine] has a pEC50 of 6.00. `c1cc(NCc2ccc3[nH]ccc3c2)nc(Nc2ccc3[nH]ncc3c2)n1` [Example 4, N^4-(1H-indol-5-ylmethyl)-N^2-(1H-indazol-5-yl)pyrimidine-2,4-diamine] showed a pEC50 of 5.39. `Cc1cc2cc(Nc3ccnc(NCc4ccc5[nH]ncc5c4)n3)ccc2[nH]1` [Example 65, N^2-(1H-indazol-5-ylmethyl)-N^4-(2-methyl-1H-indol-5-yl)pyrimidine-2,4-diamine] was tested, and the pEC50 was 6.04. `Oc1ccc2[nH]cc(CCNc3ccnc(NCc4ccc5[nH]ccc5c4)n3)c2c1` [Example 26, 3-{2-[2-(1H-indol-5-ylmethylamino)-pyrimidin-4-ylamino]ethyl}-1H-indol-5-ol] gave a pEC50 of 5.15. Molecule `COc1ccc2[nH]cc(CCNc3nccc(NCc4ccc5cc[nH]c5c4)n3)c2c1` [Example 71, N^4-(1H-indol-6-ylmethyl)-N^2-[2-(5-methoxy-1H-indol-3-yl)ethyl]pyrimidine-2,4-diamine] has a pEC50 of over 5.00. Molecule `Cc1cc2cc(Nc3ccnc(NCc4ccc5cc[nH]c5c4)n3)ccc2[nH]1` [Example 70, N^2-(1H-indol-6-ylmethyl)-N^4-(2-methyl-1H-indol-5-yl)pyrimidine-2,4-diamine] has a pEC50 of over 5.00. Molecule `c1ccc2c(CCNc3ccnc(NCc4ccc5[nH]ccc5c4)n3)c[nH]c2c1` [Example 25, N^4-[2-(1H-indol-3-yl)ethyl]-N^2-(1H-indol-5-ylmethyl)pyrimidine-2,4-diamine] has a pEC50 of 5.50. `c1cc(Nc2ccnc(NCc3ccc4[nH]ccc4c3)n2)c2cc[nH]c2c1` [Example 23, N^2-(1H-indol-5-ylmethyl)-N^4-(1H-indol-4-yl)pyrimidine-2,4-diamine] was tested, and the pEC50 was 5.79. For `c1cc(Nc2ccc3[nH]ccc3c2)nc(NCc2ccc3[nH]ccc3c2)n1` [Example 82, N^2-(1H-indol-5-ylmethyl)-N^4-(1H-indol-5-yl)pyrimidine-2,4-diamine], the pEC50 was 6.31. `Nc1cnc(Nc2ccc3[nH]ccc3c2)nc1NCc1ccc2[nH]ccc2c1` [Example 39, N^4-(1H-indol-5-ylmethyl)-N^2-(1H-indol-5-yl)pyrimidine-2,4,5-triamine] showed a pEC50 of 5.55. With `c1ccc(COc2ccc3[nH]cc(CCNc4nccc(NCc5ccc6[nH]ccc6c5)n4)c3c2)cc1` [Example 72, N^4-(1H-indol-5-ylmethyl)-N^2-{2-[5-(benzyloxy)-1H-indol-3-yl]ethyl}pyrimidine-2,4-diamine] the pEC50 was over 5.00. For `Oc1ccc2[nH]cc(CCNc3nccc(NCc4ccc5[nH]ccc5c4)n3)c2c1` [Example 10, 3-{2-[4-(1H-indol-5-ylmethylamino)-pyrimidin-2-ylamino]ethyl}-1H-indol-5-ol], the pEC50 was 4.99. Work on `FC(F)(F)c1cc(NCc2ccc3[nH]ccc3c2)nc(NCCc2c[nH]c3ccccc23)n1` [Example 35, N^2-(2-(1H-indol-3-yl)ethyl)-N^4-(1H-indol-5-ylmethyl)-6-trifluoromethylpyrimidine-2,4-diamine] yielded a pEC50 of 5.00. `Cc1ccc2[nH]cc(CCNc3nccc(NCc4ccc5[nH]ccc5c4)n3)c2c1` [Example 11, N^4-(1H-indol-5-ylmethyl)-N^2-[2-(5-methyl-1H-indol-3-yl)ethyl]pyrimidine-2,4-diamine] gave a pEC50 of 5.54. `Cc1cc(NCc2ccc3[nH]ccc3c2)nc(NCCc2c[nH]c3ccc(O)cc23)n1` [Example 32, 3-{2-[4-(1H-indol-5-ylmethylamino)-6-methyl-pyrimidin-2-ylamino]-ethyl}-1H-indol-5-ol] gave a pEC50 of 5.11.
